{
  "source": "patent US12403154B2",
  "about": "“Administration of sting agonist and checkpoint inhibitors” (Takeda Pharmaceutical Company Limited, priority 2019, dated 2025)",
  "format_in_all_cases": "in vivo",
  "key": {"[1]": {"tested_on": "L1210 mouse leukemia cell line", "experiment": "L1210 mouse syngeneic tumor model (Study 5)", "conditions": "vs PBS, time-to-progression (tumor 1000 mm^3), Compound No. 14 0.25 mg/kg IV Day 0, 3, 6, anti-mPD-1 10 mg/kg IP Day 0, 3, 6, 13", "method": "L1210 Study 5: L1210 is a mouse leukemia cell line. L1210 mouse syngeneic tumor model was generated by subcutaneous inoculation with 0.02×10^6 L1210 cells (cell suspension) in approximately 11 weeks old female DBA/2 mice (Vital River Laboratory Animal Technology Co., Ltd., Beijing, China) in the flank. When the mean tumor volume reached approximately 50 mm^3, the animals were randomized into one vehicle control and four treatment groups (n=10/group). Mice were then dosed with PBS or Compound No. 14 or anti-mouse PD-1 antibody or Compound No. 14 plus anti-mouse PD-1 antibody over a 15-day period. Tumor growth and body weight were measured twice per week during the treatment and post-treatment periods, and mice were humanely euthanized once they had reached their humane endpoint. […]\n(§1) Tumors were measured twice weekly using vernier calipers. Tumor volumes were calculated using standard equation: V=W^2×L/2, where V=volume, W=width, and L=length for the tumor. […] Tumor size and body weight were measured twice a week for the duration of the study. […]\n(§2) After the transformation, linear interpolation was used to estimate the time (in days) since randomization each mouse's tumor volume reaches 1000 mm^3. […] In case of a mouse's tumor having not reached 1000 mm^3 at the end of study, the last day the mouse was on study was recorded and right-censored. […]"}, "[2]": {"tested_on": "WEHI-3 mouse myelomonocytic leukemia cell line", "experiment": "WEHI-3 mouse syngeneic tumor model (Study 3)", "conditions": "WEHI3 model; vs PBS; time-to-progression (tumor 1000 mm^3); Compound No. 14 0.25 mg/kg IV Day 0, 3, 6; anti-mPD-1 10 mg/kg IP Day 0, 3, 6, 13", "method": "WEHI-3 Study 3: WEHI-3 is a mouse myelomonocytic leukemia cell line. WEHI-3 mouse syngeneic tumor model was generated by subcutaneous inoculation with 0.1×10^6 WEHI-3 cells (cell suspension) in approximately 11 weeks old female BALB/c mice (Vital River Laboratory Animal Technology Co., Ltd., Beijing, China) in the flank. When the mean tumor volume reached approximately 60 mm^3, the animals were randomized into one vehicle control and four treatment groups (n=10/group). Mice were then dosed with PBS or Compound No. 14 or anti-mouse PD-1 antibody or Compound No. 14 plus anti-mouse PD-1 antibody over a 21-day period. Tumor growth and body weight were measured twice per week during the treatment and post-treatment periods, and mice were humanely euthanized once they had reached their humane endpoint. […]\nas §1, §2"}, "[3]": {"tested_on": "A20 mouse B-cell lymphoma cell line", "experiment": "A20 mouse syngeneic tumor model (Study 1)", "method": "A20 Study 1: A20 is a mouse B-cell lymphoma cell line. A20 mouse syngeneic tumor model was generated by subcutaneous inoculation with 0.4×10^6 A20 cells (cell suspension) in approximately 9 weeks old female BALB/c mice (Vital River Laboratory Animal Technology Co., Ltd., Beijing, China) in the flank. When the mean tumor volume reached approximately 55 mm^3, the animals were randomized into one vehicle control and three treatment groups (n=10/group). Mice were then dosed with PBS or Compound No. 14 or anti-mouse PD-1 antibody or Compound No. 14 plus anti-mouse PD-1 antibody over a 31-day period. Tumor growth and body weight were measured twice per week during the treatment and post-treatment periods, and mice were humanely euthanized once they had reached their humane endpoint. […]\nas §1, §2"}, "[4]": {"tested_on": "RM-1 mouse prostate carcinoma cell line", "experiment": "RM-1 mouse syngeneic tumor model (Study 4)", "conditions": "RM-1 model; vs PBS; time-to-progression (tumor 1000 mm^3); Compound No. 14 0.25 mg/kg IV Day 0, 3, 6; anti-mPD-1 10 mg/kg IP Day 0, 3, 6, 13", "method": "RM-1 Study 4: RM-1 is a mouse prostate carcinoma cell line. RM-1 mouse syngeneic tumor model was generated by subcutaneous inoculation with 0.8×10^6 RM-1 cells (cell suspension) in 10 weeks old female C57BL/6 mice (Vital River Laboratory Animal Technology Co., Ltd., Beijing, China) in the flank. When the mean tumor volume reached approximately 60 mm^3, the animals were randomized into one vehicle control and four treatment groups (n=10/group). Mice were then dosed with PBS or Compound No. 14 or anti-mouse PD-1 antibody or Compound No. 14 plus anti-mouse PD-1 antibody over a 19-day period. Tumor growth and body weight were measured twice per week during the treatment and post-treatment periods, and mice were humanely euthanized once they had reached their humane endpoint. […]\nas §1, §2"}, "[5]": {"tested_on": "L5178-R mouse lymphoma cell line", "experiment": "L5178-R mouse syngeneic tumor model (Study 2)", "conditions": "vs PBS, time-to-progression (tumor 1000 mm^3), Compound No. 14 0.25 mg/kg IV Day 0, 3, 6, anti-mPD-1 10 mg/kg IP Day 0, 3, 6", "method": "L5178-R Study 2: L5178-R is a mouse lymphoma cell line. L5178-R mouse syngeneic tumor model was generated by subcutaneous inoculation with 0.2×10^6 L5178-R cells (cell suspension) in approximately 12 weeks old female DBA/2 mice (Vital River Laboratory Animal Technology Co., Ltd., Beijing, China) in the flank. When the mean tumor volume reached approximately 65 mm^3, the animals were randomized into one vehicle control and four treatment groups (n=10/group). Mice were then dosed with PBS or Compound No. 14 or anti-mouse PD-1 antibody or Compound No. 14 plus anti-mouse PD-1 antibody at 10 mg/kg (Q3D×3 & QW×3) over a 10-day period. Tumor growth and body weight were measured twice per week during the treatment and post-treatment periods, and mice were humanely euthanized once they had reached their humane endpoint. […]\nas §1, §2"}},
  "data": [
    {"smiles": "Nc1ncnc2c1ncn2[C@@H]1O[C@@H]2COP(=O)(S)O[C@@H]3[C@H](O)[C@@H](COP(=O)(S)O[C@H]2[C@H]1F)O[C@H]3n1cc(F)c2c(=O)[nH]cnc21", "note": "(stereo partly drawn) [Compound No. 14]", "values": [
      {"measurement": "HR (Weibull)", "setting": "[1]", "value": 0.118},
      {"measurement": "HR (Weibull)", "setting": "[2]", "value": 0.0487},
      {"measurement": "HR (Weibull)", "setting": "[3]; A20 model, vs PBS, time-to-progression (tumor 1000 mm^3), Compound No. 14 0.25 mg/kg IV Day 0, 3, 6, anti-mPD-1 10 mg/kg IP Day 0, 3, 6, 13, 20, 27", "value": 0.104},
      {"measurement": "complete responses", "setting": "[3]; A20 study, 31 days, n=10/group", "value": "one"},
      {"measurement": "HR (Weibull)", "setting": "[4]", "value": 0.425},
      {"measurement": "HR (Weibull)", "setting": "[5]", "value": 0.544}
    ]}
  ]
}
